Test results taken from patent publication US20220009914A1, “Analogs of Nitrofuran Antibiotics to Combat Resistance” (The Trustees of Indiana University, priority 2020, published 2022).
Read-outs that look alike come from different tables or passages of the source.

Assays:
E. coli GroEL/ES = target: T1, E. coli GroEL/ES (Escherichia coli, UniProt P0A6F5); test: GroEL/ES-mediated dRho refolding assay; assay type: biochemical
T1 construct: made in house; host or cells: GroEL in NEB 5-alpha E. coli; GroES in E. coli BL21 (DE3)
T1 sequence (P0A6F5 2-548): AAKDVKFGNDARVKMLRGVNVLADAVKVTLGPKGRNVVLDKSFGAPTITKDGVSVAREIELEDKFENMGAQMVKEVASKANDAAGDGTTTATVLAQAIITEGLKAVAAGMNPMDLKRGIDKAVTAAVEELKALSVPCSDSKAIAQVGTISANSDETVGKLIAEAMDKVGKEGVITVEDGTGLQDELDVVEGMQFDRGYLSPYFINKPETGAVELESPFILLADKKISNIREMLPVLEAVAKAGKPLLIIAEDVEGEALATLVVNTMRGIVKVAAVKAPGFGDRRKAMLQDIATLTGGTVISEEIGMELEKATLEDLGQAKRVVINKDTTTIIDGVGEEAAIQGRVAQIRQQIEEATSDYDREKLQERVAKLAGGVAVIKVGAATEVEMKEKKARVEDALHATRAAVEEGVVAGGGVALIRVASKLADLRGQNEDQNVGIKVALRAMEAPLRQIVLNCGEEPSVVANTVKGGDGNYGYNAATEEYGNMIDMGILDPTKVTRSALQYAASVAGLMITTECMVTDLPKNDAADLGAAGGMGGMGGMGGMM
Procedure: Evaluating compounds for inhibition in the GroEL/ES-mediated dRho refolding assay. Reagent preparation: For this assay, five primary reagent stocks were prepared: 1) GroEL/ES-dRho binary complex stock; 2) ATP initiation stock; 3) thiocyanate enzymatic assay stock; 4) formaldehyde quench stock; 5) ferric nitrate reporter stock. Denatured rhodanese (dRho) was prepared by 3-fold dilution of rhodanese (Roche product #R^1756, diluted to 10 mg/mL with H2O) with denaturant buffer (12 M Urea, 50 mM Tris-HCl, pH 7.4, and 10 mM DTT). Rhodanese was completely denatured by incubating at room temperature for >45 min. The binary complex solution was prepared by slowly adding the dRho stock to a stirring stock of concentrated GroEL in modified folding buffer (50 mM Tris-HCl, pH 7.4, 50 mM KCl, 10 mM MgCl2, 5 mM Na2S2O3, and 1 mM DTT). The solution was centrifuged at 16,000×g for 5 minutes, and the supernatant was collected and added to a solution of GroES in modified folding buffer to give final protein concentrations of 100 nM GroEL, 120 nM GroES, and 80 nM dRho. The binary complex stock was prepared immediately prior to use. For the ATP initiation stock, ATP solid was diluted into modified folding buffer to a final concentration of 2.0 mM. The thiocyanate enzymatic assay stock was prepared to contain 70 mM KH2PO4, 80 mM KCN, and 80 mM Na2S2O3 in water. The formaldehyde quench solution contained 30% formaldehyde in water.
Assay Protocol: First, 10 μL aliquots of the GroEL/ES-dRho complex stock were dispensed into clear, flat-bottom 384-well polystyrene plates. […] After incubating for 40 minutes at 37° C. for the refolding cycle, 30 μL of the thiocyanate enzymatic assay stock was added and incubated for 60 min at room temperature for the refolded rhodanese enzymatic reporter reaction. The reporter reaction was quenched by adding 10 μL of the formaldehyde quench stock, and then 40 μL of the ferric nitrate reporter stock was added to quantify the amount of thiocyanate produced during the enzymatic reporter reaction, which is proportional to the amount of dRho refolded by GroEL/ES. After incubating at room temperature for 15 min, the absorbance by Fe(SCN)3 was measured at 460 nm using a Molecular Devices SpectraMax Plus384 microplate reader. A second set of baseline control plates were prepared analogously, but without GroEL/ES-dRho protein binary solution, to correct for possible interference from compound absorbance or turbidity. […] Results presented represent the averages of IC50 values obtained from at least four replicates.
Evaluating compounds for inhibition in the GroEL/ES-mediated dRho refolding assay. All compounds were evaluated for inhibiting E. coli GroEL/ES-mediated refolding of the denatured Rho reporter enzyme as per our previously reported procedure. Results presented represent the averages of IC50 values obtained from at least four replicates.

E. coli GroEL = target: T2, E. coli GroEL (Escherichia coli, UniProt P0A6F5); test: GroEL-mediated ATPase assay; assay type: biochemical
T2 construct: made in house; host or cells: NEB 5-alpha E. coli
T2 sequence (P0A6F5 2-548): as above
Procedure: Evaluating compounds for inhibition in the GroEL-mediated ATPase assay. All compounds were evaluated for inhibiting E. coli GroEL-mediated ATPase activity as per our previously reported procedure although employing only GroEL in solution and not containing GroES or denatured MDH. Evaluating compounds for inhibition in the GroEL-mediated ATPase assay.
Reagent preparation: For this assay, four primary reagent solutions were prepared: 1) GroEL protein solution; 2) ATP initiation solution; 3) EDTA quench solution; 4) malachite green reporter solution. The GroEL protein solution consisted of 100 nM of GroEL in folding buffer (50 mM Tris-HCl, pH 7.4, 50 mM KCl, 10 mM MgCl2, and 1 mM DTT), which was prepared immediately prior to dispensing into the assay plates. For the ATP initiation solution, ATP solid was diluted into folding buffer to a final concentration of 2 mM. Quench solution contained 300 mM EDTA (pH 8.0). The malachite green reporter solution contained 0.034% w/v malachite green, 1.04% w/v ammonium molybdate, 1% Tween-20, and 1 M HCl dissolved in H2O.
Assay Protocol: First, 10 μL aliquots of the GroEL protein solution were dispensed into clear, flat-bottom 384-well polystyrene plates. […] After incubating for 45 minutes at 37° C., 10 μL of the EDTA quench solution was added to quench the reaction cycle. Then, 60 μL of the malachite green reporter solution was added and the plates were incubated at room temperature for 10 min. The absorbance of the malachite green-phosphate complex was measured at 600 nm using a Molecular Devices SpectraMax Plus384 microplate reader. A second set of baseline control plates were prepared analogously, but without GroEL protein solution, to correct for possible interference from compound absorbance or turbidity. […] Results presented represent the averages of IC50 values obtained from at least four replicates.
Evaluating analogs for inhibiting GroEL-mediated ATPase activity. […] Thus, we further tested analogs in a well-established GroEL ATPase assay that employed malachite green to monitor inorganic phosphate liberated as GroEL hydrolyzed ATP. Briefly, a solution of GroEL was incubated with test compounds (8-point, 3-fold dilution series) and the assay was initiated by addition of ATP. After incubating for 45 minutes, the ATPase reaction was quenched by the addition of EDTA. Malachite green was then added to the assay to bind and detect free phosphates in solution (absorbance detection at k=600 nm). If analogs inhibited ATPase activity, then there would be no free phosphates for malachite green to bind, leading to minimal absorbance at 600 nm.

[1] = read-out: GroEL/ES-dRho Refolding IC50
[2] = GroEL only, no GroES or dMDH, read-out: GroEL ATPase IC50

O=C(N/N=C/c1ccc([N+](=O)[O-])o1)c1cccc(Oc2ccccc2)c1 [Compound 24, N′-((5-nitrofuran-2-yl)methylene)-3-phenoxybenzohydrazide]
IC50 (E. coli GroEL/ES): 50 µM
IC50 (E. coli GroEL): > 250 µM

COc1ccc(C(=O)NN)cc1 [Compound 42, reference compound]
IC50 (E. coli GroEL/ES): > 250 µM
IC50 (E. coli GroEL): > 250 µM

O=C(N/N=C/c1ccc([N+](=O)[O-])o1)c1ccc(Cl)s1 [Compound 17, 5-chloro-N′-((5-nitrofuran-2-yl)methylene)thiophene-2-carbohydrazide]
IC50 (E. coli GroEL/ES; [1]): 60 µM
IC50 (E. coli GroEL; [2]): > 250 µM

COc1ccc(C(=O)N/N=C/c2ccc(O)c3ccccc23)cc1 [Compound 29, N′-((4-hydroxynaphthalen-1-yl)methylene)-4-methoxybenzohydrazide]
IC50 (E. coli GroEL/ES): 117 µM
IC50 (E. coli GroEL): > 250 µM

O=C(N/N=C/c1ccc(O)c2ncccc12)c1ccccc1Oc1ccccc1 [Compound 10, N′-((8-hydroxyquinolin-5-yl)methylene)-2-phenoxybenzohydrazide]
IC50 (E. coli GroEL/ES): 4.5 µM
IC50 (E. coli GroEL): > 250 µM

O=C(N/N=C/c1ccc([N+](=O)[O-])o1)c1cccs1 [Compound 16, N′-((5-nitrofuran-2-yl)methylene)thiophene-2-carbohydrazide]
IC50 (E. coli GroEL/ES; [1]): 222 µM
IC50 (E. coli GroEL; [2]): > 250 µM

O=C(N/N=C/c1ccc([N+](=O)[O-])o1)c1cccc2ccccc12 [Compound 22, N′-((5-nitrofuran-2-yl)methylene)-1-naphthohydrazide]
IC50 (E. coli GroEL/ES): 73 µM
IC50 (E. coli GroEL): > 250 µM

O=C(N/N=C/c1ccc([N+](=O)[O-])o1)c1ccccc1 [Compound 18, N′-((5-nitrofuran-2-yl)methylene)benzohydrazide]
IC50 (E. coli GroEL/ES): 100 µM
IC50 (E. coli GroEL): > 250 µM

O=C(N/N=C/c1ccc([N+](=O)[O-])o1)c1ccncc1 [Compound 19, N′-((5-nitrofuran-2-yl)methylene)isonicotinohydrazide]
IC50 (E. coli GroEL/ES): 64 µM
IC50 (E. coli GroEL): > 250 µM

O=C(N/N=C/c1ccc(O)c2ncccc12)c1ccc(Cl)s1 [Compound 4, 5-chloro-N′-((8-hydroxyquinolin-5-yl)methylene)thiophene-2-carbohydrazide]
IC50 (E. coli GroEL/ES): 1.4 µM
IC50 (E. coli GroEL): > 250 µM

O=C1CN(/N=C/c2ccc([N+](=O)[O-])o2)C(=O)N1 [Nitrofurantoin, reference compound]
IC50 (E. coli GroEL/ES): > 250 µM
IC50 (E. coli GroEL): > 250 µM

O=C(N/N=C/c1ccc(O)c2ncccc12)c1ccc(NS(=O)(=O)c2cccs2)cc1 [Compound 13, N-(4-(2-((8-hydroxyquinolin-5-yl)methylene)hydrazine-1-carbonyl)phenyl)thiophene-2-sulfonamide]
IC50 (E. coli GroEL/ES): 0.81 µM
IC50 (E. coli GroEL): > 250 µM

CCN(CC)S(=O)(=O)c1cccc(C(=O)N/N=C/c2ccc(O)c3ncccc23)c1 [Compound 12, N,N-diethyl-3-(2-((8-hydroxyquinolin-5-yl)methylene)hydrazine-1-carbonyl)benzenesulfonamide]
IC50 (E. coli GroEL/ES): 10 µM
IC50 (E. coli GroEL): > 250 µM

O=C(N/N=C/c1ccc(O)c2ccccc12)c1ccccc1 [Compound 30, N′-((4-hydroxynaphthalen-1-yl)methylene)benzohydrazide]
IC50 (E. coli GroEL/ES): 216 µM
IC50 (E. coli GroEL): > 250 µM

COc1ccc(C(=O)N/N=C/c2cccc3ncccc23)cc1 [Compound 31, 4-methoxy-N′-(quinolin-5-ylmethylene)benzohydrazide]
IC50 (E. coli GroEL/ES): > 250 µM
IC50 (E. coli GroEL): > 250 µM

O=C(N/N=C/c1ccc([N+](=O)[O-])o1)c1ccc(O)cc1 [Nifuroxazide, reference compound]
IC50 (E. coli GroEL/ES): 133 µM
IC50 (E. coli GroEL): > 250 µM

O=Cc1ccc(O)c2ncccc12 [Compound 40, reference compound]
IC50 (E. coli GroEL/ES; [1]): 30 µM
IC50 (E. coli GroEL; [2]): > 250 µM

O=C(N/N=C/c1ccc(O)c2ncccc12)c1cccc2ccccc12 [Compound 9, N′-((8-hydroxyquinolin-5-yl)methylene)-1-naphthohydrazide]
IC50 (E. coli GroEL/ES): 2.1 µM
IC50 (E. coli GroEL): > 250 µM

O=C(N/N=C/c1ccc([N+](=O)[O-])o1)c1ccc(NS(=O)(=O)c2cccs2)cc1 [Compound 26, N-(4-(2-((5-nitrofuran-2-yl)methylene)hydrazine-1-carbonyl)phenyl)thiophene-2-sulfonamide]
IC50 (E. coli GroEL/ES): 62 µM
IC50 (E. coli GroEL): > 250 µM

CCOc1ccc(S(=O)(=O)Nc2ccc(C(=O)N/N=C/c3ccc(O)c4ncccc34)cc2)cc1 [Compound 15, 4-ethoxy-N-(4-(2-((8-hydroxyquinolin-5-yl)methylene)hydrazine-1-carbonyl)phenyl)benzenesulfonamide]
IC50 (E. coli GroEL/ES): 1.4 µM
IC50 (E. coli GroEL): > 250 µM

O=C(N/N=C/c1ccc(O)cc1)c1ccccc1 [Compound 36, N′-(4-hydroxybenzylidene)benzohydrazide]
IC50 (E. coli GroEL/ES): > 250 µM
IC50 (E. coli GroEL): > 250 µM

COc1ccc(C(=O)N/N=C/c2ccco2)cc1 [Compound 39, N′-(furan-2-ylmethylene)-4-methoxybenzohydrazide]
IC50 (E. coli GroEL/ES): > 250 µM
IC50 (E. coli GroEL): > 250 µM

O=C(N/N=C/c1cccc2ccccc12)c1ccccc1 [Compound 34, N′-(naphthalen-1-ylmethylene)benzohydrazide]
IC50 (E. coli GroEL/ES): 209 µM
IC50 (E. coli GroEL): > 250 µM

O=C(N/N=C/c1ccc(O)c2ncccc12)c1ccccc1 [Compound 5, N′-((8-hydroxyquinolin-5-yl)methylene)benzohydrazide]
IC50 (E. coli GroEL/ES): 176 µM
IC50 (E. coli GroEL): > 250 µM

O=C(N/N=C/c1ccc(O)c2ncccc12)c1ccc(NS(=O)(=O)c2ccc(Br)cc2)cc1 [Compound 14, 4-bromo-N-(4-(2-((8-hydroxyquinolin-5-yl)methylene)hydrazine-1-carbonyl)phenyl)benzenesulfonamide]
IC50 (E. coli GroEL/ES): 1.8 µM
IC50 (E. coli GroEL): > 250 µM

COc1ccc(C(=O)N/N=C/c2ccc(O)c3ncccc23)cc1 [Compound 1, N′-((8-hydroxyquinolin-5-yl)methylene)-4-methoxybenzohydrazide]
IC50 (E. coli GroEL): > 250 µM

CCN(CC)S(=O)(=O)c1cccc(C(=O)N/N=C/c2ccc([N+](=O)[O-])o2)c1 [Compound 25, N,N-diethyl-3-(2-((5-nitrofuran-2-yl)methylene)hydrazine-1-carbonyl)benzenesulfonamide]
IC50 (E. coli GroEL/ES): 100 µM
IC50 (E. coli GroEL): > 250 µM

O=C(N/N=C/c1ccccc1)c1ccccc1 [Compound 38, N′-benzylidenebenzohydrazide]
IC50 (E. coli GroEL/ES): > 250 µM
IC50 (E. coli GroEL): > 250 µM
